Source: article PMC8232238 (Cells, 2021)
Like-named read-outs stand apart in the source and are kept apart here.

Assays:
HDAC8 = target: T1, HDAC8 (Homo sapiens, UniProt Q9BY41); settings: previously reported 4-amino analogues; cited from earlier work
T1 construct: purchased Reaction Biology corporation (contract assay)
T1 sequence (Q9BY41 1-377): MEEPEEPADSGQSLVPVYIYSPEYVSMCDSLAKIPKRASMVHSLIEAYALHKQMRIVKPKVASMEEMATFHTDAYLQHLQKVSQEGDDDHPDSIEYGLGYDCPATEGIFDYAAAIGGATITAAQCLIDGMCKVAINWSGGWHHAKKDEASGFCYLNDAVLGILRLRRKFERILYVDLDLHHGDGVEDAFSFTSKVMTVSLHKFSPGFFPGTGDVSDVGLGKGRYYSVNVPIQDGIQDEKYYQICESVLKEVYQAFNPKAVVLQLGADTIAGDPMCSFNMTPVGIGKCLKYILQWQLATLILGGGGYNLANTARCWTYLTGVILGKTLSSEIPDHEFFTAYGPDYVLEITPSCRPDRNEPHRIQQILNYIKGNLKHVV

HDAC3 = target: T2, HDAC3 (Homo sapiens, UniProt O15379); settings: previously reported 4-amino analogues; cited from earlier work
T2 construct: purchased Reaction Biology corporation (contract assay)
T2 sequence (O15379 whole entry): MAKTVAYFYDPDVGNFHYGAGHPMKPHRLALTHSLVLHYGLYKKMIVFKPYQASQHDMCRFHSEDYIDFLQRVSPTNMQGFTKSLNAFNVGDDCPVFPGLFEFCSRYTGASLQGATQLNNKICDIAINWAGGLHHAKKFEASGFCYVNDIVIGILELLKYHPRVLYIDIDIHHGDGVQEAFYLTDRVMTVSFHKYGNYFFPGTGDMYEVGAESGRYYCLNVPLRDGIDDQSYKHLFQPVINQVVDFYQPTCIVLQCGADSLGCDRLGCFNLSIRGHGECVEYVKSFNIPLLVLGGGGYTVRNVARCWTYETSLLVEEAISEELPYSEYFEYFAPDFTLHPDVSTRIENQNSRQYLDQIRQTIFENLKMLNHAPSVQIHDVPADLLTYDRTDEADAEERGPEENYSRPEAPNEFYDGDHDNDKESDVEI
T2 sequence (Q9Y618 395-489 partner limits assumed): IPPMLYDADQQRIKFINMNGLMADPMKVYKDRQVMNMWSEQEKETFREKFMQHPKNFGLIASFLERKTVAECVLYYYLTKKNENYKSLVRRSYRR

HDAC11 = target: T3, HDAC11 (Homo sapiens, UniProt Q96DB2); settings: previously reported 4-amino analogues; cited from earlier work
T3 construct: purchased Reaction Biology corporation (contract assay)
T3 sequence (Q96DB2 1-347): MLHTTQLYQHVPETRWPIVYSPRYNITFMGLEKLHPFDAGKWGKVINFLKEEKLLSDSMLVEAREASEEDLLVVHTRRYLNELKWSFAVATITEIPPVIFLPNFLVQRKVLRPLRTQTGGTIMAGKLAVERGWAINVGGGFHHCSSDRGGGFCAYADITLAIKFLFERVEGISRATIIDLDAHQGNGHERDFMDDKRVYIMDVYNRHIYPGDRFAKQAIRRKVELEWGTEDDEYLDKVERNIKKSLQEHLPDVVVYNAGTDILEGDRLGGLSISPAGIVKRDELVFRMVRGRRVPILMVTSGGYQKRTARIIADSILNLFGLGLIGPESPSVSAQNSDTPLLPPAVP

HDAC1 [1] = target: T4, HDAC1 (Homo sapiens, UniProt Q13547); settings: previously reported 4-amino analogues; cited from earlier work
T4 construct: purchased Reaction Biology corporation (contract assay)
T4 sequence (Q13547 whole entry): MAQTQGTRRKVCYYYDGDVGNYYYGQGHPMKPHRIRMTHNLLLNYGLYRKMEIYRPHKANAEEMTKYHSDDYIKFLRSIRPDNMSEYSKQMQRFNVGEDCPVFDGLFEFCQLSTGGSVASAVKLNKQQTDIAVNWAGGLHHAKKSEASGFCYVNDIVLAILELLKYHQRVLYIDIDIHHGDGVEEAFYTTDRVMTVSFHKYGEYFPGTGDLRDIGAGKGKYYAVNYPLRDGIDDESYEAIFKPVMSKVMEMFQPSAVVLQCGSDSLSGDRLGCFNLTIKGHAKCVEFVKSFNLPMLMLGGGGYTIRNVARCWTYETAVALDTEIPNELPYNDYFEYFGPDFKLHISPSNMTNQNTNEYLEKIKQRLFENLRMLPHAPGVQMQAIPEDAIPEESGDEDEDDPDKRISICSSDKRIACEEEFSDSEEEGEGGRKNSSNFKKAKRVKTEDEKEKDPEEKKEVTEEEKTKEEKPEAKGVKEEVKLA

[2] = tested on: acetylated histone in A549 cells; assay: Histone acetylation in A549 cells, immunostaining with high content imaging; format: cell-based, human; settings: 24 h; for Concentration from which histone acetylation was significantly increased: compared to untreated cells
Method: (§1) To confirm the observed activities of the selected test compounds against HDAC6, the acetylation status of tubulin in the human lung cancer cell line A549 was investigated by immunostaining combined with automated high content image analysis (see supplementary material for full details). […] The apparent drop in histone acetylation by both compounds above 10 μM is indicative of a potential cytotoxicity at higher concentrations (data not shown).
(§2) Figure 5 Cell-based assessment of HDAC activity and selectivity. Dose and time-dependency of tubulin and histone acetylation by test compounds. A549 cells were treated with (A,B) different concentrations (0–50 µM) of CF011, KNH019 and tubastatin for 24 h or with (C,D) 1 µM over different time intervals before (A,C) tubulin acetylation or (B,D) histone acetylation were automatically quantified using high content imaging. Data represent the average of four independent experiments with four replicate wells/experiments. The statistical significances of effects compared to the untreated control were analysed using Brown–Forsythe and Welch one-way ANOVA analyses using Graph Pad Prism. The significance was set as * 0.05 > p ≥ 0.01, ** 0.01 > p ≥ 0.002. Error bars represent the Standard Error of Mean (SEM). (E) Representative fluorescence images show tubulin acetylation (yellow), histone acetylation (red) and nuclear counterstain (DAPI, blue) after 24 h of exposure to test compounds. Secondary antibodies were detected using excitation/emission filters for CY3 (excitation: 542/27 nm, emission: 597/45 nm), CY5 (excitation: 632/22 nm, emission: 684/25 nm) and DAPI (excitation: 390/18 nm, emission: 435/48 nm), respectively. […]
(§3) S2.2 Cell Culture, Treatment and Immunostaining:
(§4) A549 cells (ATCC® CCL-185™, In Vitro Technologies Pty. Ltd., Victoria, Australia) were cultured in low glucose Dulbecco’s Modified Eagle Media (DMEM, 1 g/L glucose, 0.584 g/L L-glutamine, 3.7 g/L sodium bicarbonate, 10 % fetal bovine serum) under standard conditions (> 90 % humidity, 37 °C temperature, 5 % CO 2). For experiments, 5,000 cells/ well were seeded in 100 µl serum free DMEM in 384 well plates (µCLEAR®, Greiner) and left to adhere for 24 hours before the treatment. Cells were treated with 100 µl of test compound -containing media for up to 24 hours before cells were fixed with 4 % paraformaldehyde (PFA) solution in PBS (10 minutes at room temperature (RT)) and permeabi lized with 50 µl of 0.5 % Triton X -100 in PBS. Subsequently, cells were blocked in PBST (5% fetal bovine serum, 5% bovine serum albumin, 5% goat serum, 0.1% Tween 20 in PBS) before stained with anti - acetylated tubulin (T7451, Sigma Aldrich; 1:1,000) and an ti-acetylated histone antibody (ab47915, Abcam; 1:1,000) overnight at 4 °C. Subsequently, cells were exposed to secondary antibodies (goat anti-mouse Alexa fluor 594 (Invitrogen; 1:10,000) and goat anti -rabbit Alexa fluor 647 (Invitrogen; 1:10,000) in PBST ) and DAPI solution (Invitrogen; 1:10,000 in PBST) before images were acquired.
(§5) Fluorescence images were acquired (10x magnification, 2 -D format) using the InCell 2200 high content imaging system (V7.3, GE Healthcare life sciences) wi th CY3 (excitation: 542/27 nm, emission: 597/45 nm), CY5 (excitation: 632/22 nm, emission: 684/25 nm) and DAPI (excitation: 390/18 nm, emission:
435/48 nm) filters. […] Data was expressed as % Relative Fluorescence Units (RFU) […]

[3] = tested on: acetylated tubulin in A549 cells; assay: Tubulin acetylation in A549 cells, immunostaining with high content imaging; format: cell-based, human; settings: 24 h; for Concentration from which tubulin acetylation was significantly increased: compared to untreated cells
Method: as §1, §2, §3, §4, §5
435/48 nm) filters. Two images/well at predefined positions were automatically acquired with 4 replicate wells for each treatment condition/ experiment. At least 3 independent experiments were conducted for each condition. Acquired images were automatically processed using InCarta software (v1.6, GE Healthcare life sciences). All images were manually checked for ar tefacts. Images with less than 30 cells were excluded from the analysis. Excel and GraphPad Prism was used for statistical analysis and graphical representation. Data was expressed as % Relative Fluorescence Units (RFU) […]

HDAC1 [4] = target: T4, HDAC1; design: method as in PMID 30168823; settings: Figure 2; cited from earlier work
HDAC6 = target: T5, HDAC6 (Homo sapiens, UniProt Q9UBN7); design: method as in PMID 30168823; settings: Figure 2; cited from earlier work
T5 construct: purchased Reaction Biology corporation (contract assay)
T5 sequence (Q9UBN7 1-1215): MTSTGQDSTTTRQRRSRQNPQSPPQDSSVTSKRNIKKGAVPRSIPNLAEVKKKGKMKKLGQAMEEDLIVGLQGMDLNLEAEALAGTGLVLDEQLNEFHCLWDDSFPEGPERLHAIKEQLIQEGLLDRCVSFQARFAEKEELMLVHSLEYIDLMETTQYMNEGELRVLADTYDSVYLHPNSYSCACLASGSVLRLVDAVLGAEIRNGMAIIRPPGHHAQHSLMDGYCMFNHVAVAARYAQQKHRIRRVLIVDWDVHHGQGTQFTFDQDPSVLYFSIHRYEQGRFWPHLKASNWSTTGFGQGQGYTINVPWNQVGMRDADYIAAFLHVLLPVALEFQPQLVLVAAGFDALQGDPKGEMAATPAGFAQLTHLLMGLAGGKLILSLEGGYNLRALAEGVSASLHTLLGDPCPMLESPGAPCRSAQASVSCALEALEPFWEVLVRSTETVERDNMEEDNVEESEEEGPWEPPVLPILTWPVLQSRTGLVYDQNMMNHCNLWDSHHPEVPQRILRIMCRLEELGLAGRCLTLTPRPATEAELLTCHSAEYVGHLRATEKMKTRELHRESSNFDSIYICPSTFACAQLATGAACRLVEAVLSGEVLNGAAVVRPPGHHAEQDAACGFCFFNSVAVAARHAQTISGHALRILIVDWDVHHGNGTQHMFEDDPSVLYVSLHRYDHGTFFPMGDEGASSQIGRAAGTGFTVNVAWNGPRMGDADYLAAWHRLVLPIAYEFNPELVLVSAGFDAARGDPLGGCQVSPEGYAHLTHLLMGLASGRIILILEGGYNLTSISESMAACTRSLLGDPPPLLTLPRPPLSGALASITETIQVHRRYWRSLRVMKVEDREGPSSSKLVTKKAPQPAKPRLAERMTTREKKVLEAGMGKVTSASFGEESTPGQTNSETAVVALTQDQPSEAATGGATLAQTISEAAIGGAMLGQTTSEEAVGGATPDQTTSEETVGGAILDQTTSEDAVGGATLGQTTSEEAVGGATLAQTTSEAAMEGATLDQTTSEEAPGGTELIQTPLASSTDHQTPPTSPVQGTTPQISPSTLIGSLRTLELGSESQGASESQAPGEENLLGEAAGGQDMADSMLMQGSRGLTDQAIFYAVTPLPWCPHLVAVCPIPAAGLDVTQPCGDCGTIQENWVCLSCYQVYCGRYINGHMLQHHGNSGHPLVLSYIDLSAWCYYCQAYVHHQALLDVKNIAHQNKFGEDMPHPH

CCCNc1ccc2c3c(cccc13)C(=O)N(CCCCCC(=O)NO)C2=O [CF010]
Selectivity factor (SF) HDAC8 against HDAC6 (HDAC8): 317
IC50 (HDAC3): 110 ± 4 nM
Selectivity factor (SF) HDAC3 against HDAC6 (HDAC3): 23
Selectivity factor (SF) HDAC11 against HDAC6 (HDAC11): 16
Selectivity factor (SF) = HDAC1 IC50/HDAC6 IC50 (HDAC1 [1]): 123

O=C(CCCCCN1C(=O)c2cccc3c(NCc4ccccc4)ccc(c23)C1=O)NO [CF011]
Selectivity factor (SF) HDAC8 against HDAC6 (HDAC8): 703
Histone acetylation in representative immunostaining images ([2]; 10 µM): strongly induce
Concentration from which histone acetylation was significantly increased [2]: 10^−6 mM
Increase of tubulin acetylation compared to untreated cells (up to) ([3]; 0-50 µM, dose-dependent): ~1.5 fold
Tubulin acetylation in representative immunostaining images ([3]; 10 µM): strongly induce
Concentration from which tubulin acetylation was significantly increased [3]: 10^−9 mM
IC50 (HDAC3): 360 ± 0.7 nM
Selectivity factor (SF) HDAC3 against HDAC6 (HDAC3): 103
Selectivity factor (SF) HDAC11 against HDAC6 (HDAC11): 43
Selectivity factor (SF) = HDAC1 IC50/HDAC6 IC50 (HDAC1 [1]): 566

COc1cc2c3c(cccc3c1)C(=O)N(Cc1ccc(C(=O)NO)cc1)C2=O [Compound 3]
IC50 (HDAC1 [4]): 33 nM
Selectivity factor (SF) = HDAC1 IC50/HDAC6 IC50 (HDAC1 [4]): 412
IC50 (HDAC6): 0.08 nM

CN1CCc2c(c3ccccc3n2Cc2ccc(C(=O)NO)cc2)C1 [tubastatin]
Concentration from which histone acetylation was significantly increased [2]: 10^−3 mM
Concentration from which tubulin acetylation was significantly increased [3]: 10^−3 mM
